Key:
Assay in all cases: relative viability (nuclei count vs DMSO), 5 days (fraction); higher = more cells survive
[1] = system: HCC-44
Method in brief: (§1)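 Dosing by pin tool came one day after lung cancer cell lines were seeded in 1536-well plates, using either one drug or a fixed anchor-drug dose plus five library-drug doses (not always all listed) in √10 steps. After 5 days, nuclei were counted on 4× images. Relative viability is treated-well nuclei count divided by vehicle-well nuclei count, and values are medians of duplicate plates.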

[2] = system: LCLC-103H
Method in brief: as §1

[3] = system: EPLC-272H
Method in brief: as §1

[4] = system: NCI-H650
Method in brief: as §1

[5] = system: NCI-H2405
Method in brief: as §1

[6] = system: ChaGo-K-1
Method in brief: as §1

[7] = system: NCI-H23
Method in brief: as §1

[8] = system: NCI-H1437
Method in brief: as §1

[9] = system: EMC-BAC-2
Method in brief: as §1

[10] = system: NCI-H441
Method in brief: as §1

[11] = system: NCI-H2347
Method in brief: as §1

[12] = system: LOU-NH91
Method in brief: as §1

[13] = system: HOP-62
Method in brief: as §1

[14] = system: NCI-H2126
Method in brief: as §1

[15] = system: NCI-H727
Method in brief: as §1

[16] = system: NCI-H2170
Method in brief: as §1

[17] = system: NCI-H460
Method in brief: as §1

[18] = system: NCI-H647
Method in brief: as §1

[19] = system: NCI-H1793
Method in brief: as §1

`O=c1[nH]c2ccccc2n1C1CCN(CCCC(c2ccc(F)cc2)c2ccc(F)cc2)CC1` [Pimozide] + NC(=O)Nc1cc(-c2cccc(F)c2)sc1C(=O)N[C@H]1CCCNC1 [AZD7762] (partner 0.2 µM) showed a relative viability ([1]; first compound 0.08 µM) of 1.01, a relative viability ([1]; first compound 0.253 µM) of 0.992 and a relative viability ([1]; first compound 0.8 µM) of 0.849. The relative viability ([1]; first compound 2.53 µM) was 0.98, the relative viability ([1]; first compound 8 µM) was 0.971 and the relative viability ([2]; first compound 0.08 µM) was 0.743. For the same molecule, the relative viability ([2]; first compound 0.253 µM) was 0.778, the relative viability ([2]; first compound 0.8 µM) was 0.733 and the relative viability ([2]; first compound 2.53 µM) was 0.802. For the same molecule, the relative viability ([2]; first compound 8 µM) was 0.686, the relative viability ([3]; first compound 0.08 µM) was 0.229 and the relative viability ([3]; first compound 0.253 µM) was 0.163. The relative viability ([3]; first compound 0.8 µM) was 0.265, the relative viability ([3]; first compound 2.53 µM) was 0.289 and the relative viability ([3]; first compound 8 µM) was 0.282. The relative viability ([4]; first compound 0.08 µM) was 1.17, the relative viability ([4]; first compound 0.253 µM) was 0.983 and the relative viability ([4]; first compound 0.8 µM) was 0.831. It also gave a relative viability ([4]; first compound 2.53 µM) of 0.909, a relative viability ([4]; first compound 8 µM) of 0.693 and a relative viability ([5]; first compound 0.08 µM) of 0.741. The relative viability ([5]; first compound 0.253 µM) was 0.716, the relative viability ([5]; first compound 0.8 µM) was 0.673 and the relative viability ([5]; first compound 2.53 µM) was 0.608. The relative viability ([5]; first compound 8 µM) was 0.426, the relative viability ([6]; first compound 0.08 µM) was 0.914 and the relative viability ([6]; first compound 0.253 µM) was 0.871. For the same molecule, the relative viability ([6]; first compound 0.8 µM) was 0.88, the relative viability ([6]; first compound 2.53 µM) was 0.803 and the relative viability ([6]; first compound 8 µM) was 0.824. The relative viability ([7]; first compound 0.08 µM) was 0.248, the relative viability ([7]; first compound 0.253 µM) was 0.315 and the relative viability ([7]; first compound 0.8 µM) was 0.195. The relative viability ([7]; first compound 2.53 µM) was 0.167, the relative viability ([7]; first compound 8 µM) was 0.213 and the relative viability ([8]; first compound 0.08 µM) was 1.14. The relative viability ([8]; first compound 0.253 µM) was 1.09, the relative viability ([8]; first compound 0.8 µM) was 1.03 and the relative viability ([8]; first compound 2.53 µM) was 1.05. It also gave a relative viability ([8]; first compound 8 µM) of 1.09, a relative viability ([9]; first compound 0.08 µM) of 1.06 and a relative viability ([9]; first compound 0.253 µM) of 1.03. The relative viability ([9]; first compound 0.8 µM) was 1, the relative viability ([9]; first compound 2.53 µM) was 1.09 and the relative viability ([9]; first compound 8 µM) was 1. The relative viability ([10]; first compound 0.08 µM) was 1.32, the relative viability ([10]; first compound 0.253 µM) was 0.806 and the relative viability ([10]; first compound 0.8 µM) was 1.26. It also gave a relative viability ([10]; first compound 2.53 µM) of 1.09, a relative viability ([10]; first compound 8 µM) of 1.04 and a relative viability ([11]; first compound 0.08 µM) of 0.782. It also gave a relative viability ([11]; first compound 0.253 µM) of 0.689, a relative viability ([11]; first compound 0.8 µM) of 0.723 and a relative viability ([11]; first compound 2.53 µM) of 0.736. The relative viability ([11]; first compound 8 µM) was 0.744, the relative viability ([12]; first compound 0.08 µM) was 0.713 and the relative viability ([12]; first compound 0.253 µM) was 0.746. It also gave a relative viability ([12]; first compound 0.8 µM) of 0.776, a relative viability ([12]; first compound 2.53 µM) of 0.778 and a relative viability ([12]; first compound 8 µM) of 0.778. The relative viability ([13]; first compound 0.08 µM) was 0.634, the relative viability ([13]; first compound 0.253 µM) was 0.477 and the relative viability ([13]; first compound 2.53 µM) was 0.661. It also gave a relative viability ([13]; first compound 8 µM) of 0.517, a relative viability ([14]; first compound 0.08 µM) of 1.02 and a relative viability ([14]; first compound 0.253 µM) of 1.06. It also gave a relative viability ([14]; first compound 0.8 µM) of 1.01, a relative viability ([14]; first compound 2.53 µM) of 1.02 and a relative viability ([14]; first compound 8 µM) of 1. The relative viability ([15]; first compound 0.08 µM) was 0.496, the relative viability ([15]; first compound 0.253 µM) was 0.581 and the relative viability ([15]; first compound 0.8 µM) was 0.596. For the same molecule, the relative viability ([15]; first compound 2.53 µM) was 0.613, the relative viability ([15]; first compound 8 µM) was 0.525 and the relative viability ([16]; first compound 0.08 µM) was 0.875. The relative viability ([16]; first compound 0.253 µM) was 0.828, the relative viability ([16]; first compound 0.8 µM) was 0.85 and the relative viability ([16]; first compound 2.53 µM) was 0.915. For the same molecule, the relative viability ([16]; first compound 8 µM) was 0.802, the relative viability ([17]; first compound 0.08 µM) was 0.615 and the relative viability ([17]; first compound 0.253 µM) was 0.539. It also gave a relative viability ([17]; first compound 0.8 µM) of 0.625, a relative viability ([17]; first compound 2.53 µM) of 0.693 and a relative viability ([17]; first compound 8 µM) of 0.549. The relative viability ([18]; first compound 0.08 µM) was 0.46, the relative viability ([18]; first compound 0.253 µM) was 0.26 and the relative viability ([18]; first compound 0.8 µM) was 0.245. It also gave a relative viability ([18]; first compound 2.53 µM) of 0.409, a relative viability ([18]; first compound 8 µM) of 0.532 and a relative viability ([19]; first compound 0.08 µM) of 0.553. The relative viability ([19]; first compound 0.253 µM) was 0.36, the relative viability ([19]; first compound 0.8 µM) was 0.352 and the relative viability ([19]; first compound 2.53 µM) was 0.263. For the same molecule, the relative viability ([19]; first compound 8 µM) was 0.28.
